From patent US20230075856A1, “CYCLIC SULFAMIDE COMPOUNDS FOR TREATMENT OF HBV” (Assembly Biosciences, Inc., priority 2018, published 2023)

Each molecule was assayed on HBV viral load production from HepAD38 cells (assay: Viral production from HepAD38 cells: viral load in supernatant by qPCR of the HBV core sequence). Settings: 5 days incubation, qPCR of supernatant HBV DNA vs DMSO control, read-out: viral load lowering EC50 (Activity).
Assay type: cell-based
How it was run: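 HepAD38 cells seeded at 50,000/well in tetracycline-free medium with 2% FBS, treated with compounds (final top concentration 10 μM) for 5 days at 37 °C. Supernatant HBV DNA quantified by TaqMan qPCR of core sequence against HBV DNA standards, relative to DMSO controls; EC50 by four-parameter logistic fit.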
CN(C)CC(C)(C)COc1ccc(-c2ncc(CNC(=O)C3CC(C(=O)Nc4ccc(F)c(Cl)c4)N(C)S(=O)(=O)N3)s2)cc1 (single isomer, unassigned) [Compound 943-ISOMER-B, N3-(3-chloro-4-fluoro-phenyl)-N5-[[2-[4-[3-(dimethylamino)-2,2-dimethyl-propoxy]phenyl]thiazol-5-yl]methyl]-2methyl-1,1-dioxo-1,2,6-thiadiazinane-3,5-dicarboxamide] was tested, and the EC50 was 0.1 to 10 µM.
In the case of CN1C(C(=O)Nc2ccc(F)c(Cl)c2)CC(C(=O)NCc2cnc(-c3ccc(C#CCN4CCCCC4)cc3)s2)NS1(=O)=O (single isomer, unassigned) [Compound 946-ISOMER-B, N3-(3-chloro-4-fluoro-phenyl)-2-methyl-1,1-dioxo-N5-[[2-[4-[3-(1-piperidyl)prop-1-ynyl]phenyl]thiazol-5-yl]methyl]-1,2,6-thiadiazinane-3,5-dicarboxamide], the EC50 is reported as 0.1 to 10 µM.
CN1C(C(=O)Nc2ccc(F)c(Cl)c2)CC(C(=O)NC2CCCc3nc(-c4ccc(OCCN5CCCCC5)cc4)sc32)NS1(=O)=O (single isomer, unassigned) [Compound 948-ISOMER-B, N3-(3-chloro-4-fluoro-phenyl)-2-methyl-1,1-dioxo-N5-[2-[4-[2-(1-piperidyl)ethoxy]phenyl]-4,5,6,7-tetrahydro-1,3-benzothiazol-7-yl]-1,2,6-thiadiazinane-3,5-dicarboxamide] showed an EC50 of 0.1 to 10 µM.
CN1C(C(=O)Nc2ccc(F)c(Cl)c2)CC(C(=O)NCc2csc(-c3ccc(OCCN4CCCCC4)cc3)n2)NS1(=O)=O (single isomer, unassigned) [Compound 957-ISOMER-B, N3-(3-chloro-4-fluoro-phenyl)-2-methyl-1,1-dioxo-N5-[[2-[4-[2-(1-piperidyl)ethoxy]phenyl]thiazol-4-yl]methyl]-1,2,6-thiadiazinane-3,5-dicarboxamide] was tested, and the EC50 was 0.1 to 10 µM.
CN1C(C(=O)Nc2ccc(F)c(Cl)c2)CC(C(=O)NC2CCN(c3cc(Cl)ccn3)CC2)NS1(=O)=O (single isomer, unassigned) [Compound 974-ISOMER-B, N3-(3-chloro-4-fluoro-phenyl)-N5-[1-(4-chloro-2-pyridyl)-4-piperidyl]-2-methyl-1,1-dioxo-1,2,6-thiadiazinane-3,5-dicarboxamide] gave an EC50 of 0.05 to 0.1 µM.
Work on COc1ccccc1-c1ncc(CNC(=O)C2CC(C(=O)Nc3ccc(F)c(Cl)c3)N(C)S(=O)(=O)N2)s1 (single isomer, unassigned) [Compound 987-ISOMER-B, N3-(3-chloro-4-fluoro-phenyl)-N5-[[2-(2-methoxyphenyl)thiazol-5-yl]methyl]-2-methyl-1,1-dioxo-1,2,6-thiadiazinane-3,5-dicarboxamide] yielded an EC50 of 0.1 to 10 µM.
C[C@@H](NC(=O)C1CC(C(=O)Nc2ccc(F)c(Cl)c2)N(C)S(=O)(=O)N1)c1ccc(F)cc1 (single isomer, unassigned; isomer-a) [493-R-ISOMER-A] was tested, and the EC50 was < 0.05 µM.
In the case of CN1C(C(=O)Nc2ccc(F)c(Cl)c2)CC(C(=O)NCc2cc(-c3ccccc3Cl)no2)NS1(=O)=O (single isomer, unassigned; isomer-a) [1025-ISOMER-A, N3-(3-chloro-4-fluro-phenyl)-N5-[[3-(2-chlorophenyl)isoxazol-5-yl]methyl]-2-methyl-1,1-dioxo-1,2,6-thiadiazinane-3,5-dicarboxamide], the EC50 is reported as < 0.05 µM.
Cc1c(CNC(=O)C2CC(C(=O)Nc3ccc(F)c(Cl)c3)N(C)S(=O)(=O)N2)nnn1-c1ccccc1 (single isomer, unassigned; isomer-a) [1148-ISOMER-A, N3-(3-chloro-4-fluoro-phenyl)-2-methyl-N5-[(5-methyl-1-phenyl-triazol-4-yl)methyl]-1,1-dioxo-1,2,6-thiadiazinane-3,5-dicarboxamide] was tested, and the EC50 was 0.05 to 0.1 µM.
Cc1ncc(CNC(=O)C2CC(C(=O)Nc3ccc(F)c(Cl)c3)N(C)S(=O)(=O)N2)s1 (single isomer, unassigned; isomer-a) [Compound 495-ISOMER-A, N3-(3-chloro-4-fluroo-phenyl)-2-methyl-N5-[(2-methylthiazol-5-yl)methyl]-1,1-dioxo-1,2,6-thiadiazinane-3,5-dicarboxamide] gave an EC50 of 0.1 to 10 µM.
COC(=O)N1CCC(NC(=O)C2CC(C(=O)Nc3ccc(F)c(Cl)c3)N(CC(F)(F)F)S(=O)(=O)N2)CC1 (single isomer, unassigned; isomer-a) [Compound 893-ISOMER-A, methyl 4-[[5-[(3-chloro-4-fluroo-phenyl)carbamoyl]-1,1-dioxo-6-(2,2,2-triflurooethyl)-1,2,6-thiadiazinane-3-carbonyl]amino]piperidine-1-carboxylate] was tested, and the EC50 was < 0.05 µM.
With CN1C(C(=O)Nc2ccc(F)c(Cl)c2)CC(C(=O)NCc2ccccc2-n2ccnc2)NS1(=O)=O (single isomer, unassigned; isomer-a) [Compound 910-ISOMER-A, N3-(3-chloro-4-fluoro-phenyl)-N5-[(2-imidaozl-1-ylphenyl)methyl]-2-methyl-1,1-dioxo-1,2,6-thiadiazinane-3,5-dicarboxamide] the EC50 was < 0.05 µM.
For CN1C(C(=O)Nc2ccc(F)c(Cl)c2)CC(C(=O)NCc2cnc(-c3ccc(O)cc3)s2)NS1(=O)=O (single isomer, unassigned; isomer-a) [Compound 924-ISOMER-A, N3-(3-chloro-4-fluroo-phenyl)-N5-[[2-(4-hydroxyphenyl)thiazol-5-yl]methyl]-2-methyl-1,1-dioxo-1,2,6-thiadiazinane-3,5-dicarboxamide], the EC50 was 0.1 to 10 µM.
With CN1C(C(=O)Nc2ccc(F)c(Cl)c2)CC(C(=O)NCc2cc(-c3ccccc3Cl)no2)NS1(=O)=O (single isomer, unassigned; isomer-b) [1025-ISOMER-B, N3-(3-chloro-4-fluoro-phenyl)-N5-[[3-(2-chlorophenyl)isoxazol-5-yl]methyl]-2-methyl-1,1-dioxo-1,2,6-thiadicarboxamidediazinane-3,5-] the EC50 was 0.1 to 10 µM.
In the case of Cc1nc(-c2ccc(F)cc2F)sc1CNC(=O)C1CC(C(=O)Nc2ccc(F)c(Cl)c2)N(C)S(=O)(=O)N1 (single isomer, unassigned; isomer-b) [1083-ISOMER-B, N3-(3-chloro-4-fluoro-phenyl)-N5-[[2-(2,4-difluroophenyl)-4-methyl-thiazol-5-yl]methyl]-2-methyl-1,1-dioxo-1,2,6-thiadiazinane-3,5-dicarboxamide], the EC50 is reported as 0.1 to 10 µM.
Cc1c(CNC(=O)C2CC(C(=O)Nc3ccc(F)c(Cl)c3)N(C)S(=O)(=O)N2)nnn1-c1ccccc1 (single isomer, unassigned; isomer-b) [1148-ISOMER-B, N3-(3-chloro-4-fluoro-phenyl)-2-methyl-N5-[(5-methyl-1-phenyl-triazol-4-yl)methyl]-1,1-dioxo-1,2,6-thiadiazinane-3,5-dicarboxamide] was tested, and the EC50 was 0.1 to 10 µM.

Same assay, conditions: Hepatitis B virus, HePAD38, 120 h, 5 days incubation, qPCR of supernatant HBV DNA vs DMSO control, read-out: viral load lowering EC50 (Activity)
For CN1C(C(=O)Nc2ccc(F)c(Cl)c2)CC(C(=O)NCc2cnc(-c3ccc(C#CCN4CCCCC4)cc3)s2)NS1(=O)=O (single isomer, unassigned) [Compound 946-ISOMER-A, N3-(3-chloro-4-fluoro-phenyl)-2-methyl-1,1-dioxo-N5-[[2-[4-[3-(1-piperidyl)prop-1-ynyl]phenyl]thiazol-5-yl]methyl]-1,2,6-thiadiazinane-3,5-dicarboxamide], the EC50 was < 0.05 µM.
In the case of CN1C(C(=O)Nc2ccc(F)c(Cl)c2)CC(C(=O)NC2CCCc3nc(-c4ccc(OCCN5CCCCC5)cc4)sc32)NS1(=O)=O (single isomer, unassigned) [Compound 948-ISOMER-A], the EC50 is reported as < 0.05 µM.
CN1C(C(=O)Nc2ccc(F)c(Cl)c2)CC(C(=O)NCc2csc(-c3ccc(OCCN4CCCCC4)cc3)n2)NS1(=O)=O (single isomer, unassigned) [Compound 957-ISOMER-A, N3-(3-chloro-4-fluoro-phenyl)-2-methyl-1,1-dioxo-N5-[[2-[4-[2-(1-piperidyl)ethoxy]phenyl]thiazol-4-yl]methyl]-1,2,6-thiadiazinane-3,5-dicarboxamide] was tested, and the EC50 was < 0.05 µM.
For CN1C(C(=O)Nc2ccc(F)c(Cl)c2)CC(C(=O)NC2CCN(c3cc(Cl)ccn3)CC2)NS1(=O)=O (single isomer, unassigned) [Compound 974-ISOMER-A, N3-(3-chloro-4-fluoro-phenyl)-N5-[1-(4-chloro-2-pyridyl)-4-piperidyl]-2-methyl-1,1-dioxo-1,2,6-thiadiazinane-3,5-dicarboxamide], the EC50 was < 0.05 µM.
In the case of CN1C(C(=O)Nc2ccc(F)c(Cl)c2)CC(C(=O)NC2CCN(c3cc(CN4CCCCC4)ccn3)CC2)NS1(=O)=O (single isomer, unassigned) [Compound 975-ISOMER-A, N3-(3-chloro-4-fluoro-phenyl)-2-methyl-1,1-dioxo-N5-[1-[4-(1-piperidylmethyl)-2-pyridyl]-4-piperidyl]-1,2,6-thiadiazinane-3,5-dicarboxamide], the EC50 is reported as < 0.05 µM.
Work on CN1CCC(Oc2ccc(-c3ncc(CNC(=O)C4CC(C(=O)Nc5ccc(F)c(Cl)c5)N(C)S(=O)(=O)N4)s3)cc2)CC1 (single isomer, unassigned) [Compound 979-ISOMER-A, N3-(3-chloro-4-fluoro-phenyl)-2-methyl-N5-[[2-[4-[(1-methyl-4-piperidyl)oxy]phenyl]thiazol-5-yl]methyl]-1,1-dioxo-1,2,6-thiadiazinane-3,5-dicarboxamide] yielded an EC50 of 0.1 to 10 µM.
For COc1ccccc1-c1ncc(CNC(=O)C2CC(C(=O)Nc3ccc(F)c(Cl)c3)N(C)S(=O)(=O)N2)s1 (single isomer, unassigned) [Compound 987-ISOMER-A, N3-(3-chloro-4-fluoro-phenyl)-N5-[[2-(2-methoxyphenyl)thiazol-5-yl]methyl]-2-methyl-1,1-dioxo-1,2,6-thiadiazinane-3,5-dicarboxamide], the EC50 was < 0.05 µM.
In the case of CN1C(C(=O)Nc2ccc(F)c(Cl)c2)CC(C(=O)NCc2ccn(-c3ccccc3)n2)NS1(=O)=O (single isomer, unassigned) [Compound 991-ISOMER-A, N3-(3-chloro-4-fluoro-phenyl)-2-methyl-1,1-dioxo-N5-[(1-phenylpyrazol-3-yl)methyl]-1,2,6-thiadiazinane-3,5-dicarboxamide], the EC50 is reported as 0.1 to 10 µM.
